Assay results: PubChem BioAssay (NCI)
Several values for one entry are separate records, joined by “and”; a condition that tells them apart may be missing. Equal values may be shown once.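 Cells were grown in 96-well plates and exposed to each compound for 48 hours at five concentrations; endpoints were interpolated linearly between bracketing concentrations, or set to the highest concentration if not reached. GI50 marks 50% less growth. TGI is the concentration that stops growth completely.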

Key:
Experiment in all cases: NCI-60 cell line screen, 48 h
[1] = system: CCRF-CEM leukemia
[2] = system: HCT-116 colon
[3] = system: HL-60(TB) leukemia
[4] = system: MDA-MB-435
[5] = system: NCI-H522 lung
[6] = system: OVCAR-5 ovarian
[7] = system: OVCAR-8 ovarian
[8] = system: RPMI-8226 leukemia
[9] = system: SNB-19 CNS
[10] = system: U251 CNS

SMILES	GI50 [1]	TGI [1]	GI50 [2]	TGI [2]	GI50 [3]	TGI [3]	GI50 [4]	TGI [4]	GI50 [5] [µM]	TGI [5]	GI50 [6]	TGI [6]	GI50 [7]	TGI [7]	GI50 [8]	TGI [8]	GI50 [9] [µM]	TGI [9] [µM]	GI50 [10]	TGI [10]
CC[C@H](NC(=O)[C@H](CS(=O)(=O)CC1CC1)N[C@@H](c1ccc(F)cc1)C(F)(F)F)C(=O)C(=O)NC1CC1	> 100 µM	> 100 µM	> 100 µM	> 100 µM	> 100 µM	> 100 µM	> 100 µM	> 100 µM	> 100	> 100 µM	> 100 µM	> 100 µM	> 100 µM	> 100 µM	> 100 µM	> 100 µM	> 100	> 100	> 100 µM	> 100 µM
COc1ccc(NC(=O)/C=C(C)/C=C/C=C(C)\C=C\C2=C(C)CCCC2(C)C)cc1	48 µM	> 100 µM	28.6 µM	> 100 µM	2.13 µM	16.1 µM	48.2 µM	> 100 µM	28.2	> 100 µM	> 100 µM	> 100 µM	> 100 µM	> 100 µM	1.71 µM	64.4 µM	> 100	> 100	> 100 µM	> 100 µM
Cn1ncc(-c2ccc3c(=O)[nH]nc(CN)c3c2)c1-c1c(F)cc2ccccc2c1C#N	10.7 µM	57.3 µM	3.69 µM	14.5 µM	3.42 µM	18.2 µM	3.72 µM	14.5 µM	4.17	17.7 µM	11.3 µM	29.4 µM	4.34 µM	17.5 µM	4.78 µM	27.4 µM	9.44	24.1	5.36 µM	17.9 µM
CC1(C)[C@@H](OC(N)=O)C=C[C@]2(C=O)[C@H]3CC[C@]4(C)[C@@H](c5ccc(=O)oc5)[C@@H](Cl)C[C@]4(O)C3=CC[C@@H]12	0.00384 µM	0.0117 µM	0.00409 µM	0.00818 µM	0.00558 µM	0.0121 µM	0.006 µM	0.0141 µM	< 0.0025	0.00573 µM	0.00581 µM	0.0135 µM	0.00517 µM	0.0123 µM	0.00719 µM	0.023 µM	0.00782	0.0253	0.00451 µM	0.00854 µM
COC(=O)[C@]12CC[C@@H](C)[C@H](C)[C@@H]1C1=CC[C@@H]3[C@@]4(C)CC(=O)[C@H](OC(=O)c5ccco5)[C@@]5(C)COC(=C45)C[C@@]3(C)[C@]1(C)CC2	0.767 µM	> 100 µM	0.337 µM	> 100 µM	0.46 µM	> 100 µM	0.763 µM	> 100 µM	3.1	> 100 µM	> 100 µM	> 100 µM	2.47 µM	> 100 µM	0.584 µM	> 100 µM	3.57	> 100	0.703 µM	> 100 µM
N=C(N)SCCc1ccccn1		> 100 µM		> 100 µM		> 100 µM		> 100 µM		> 100 µM		> 100 µM		> 100 µM		> 100 µM		> 100		> 100 µM
O=[N+]([O-])c1cc(F)c2cccnc2c1O	3.46 µM	26.7 µM	6.93 µM	> 100 µM	2.48 µM	8.12 µM	15 µM	> 100 µM	4.01	26 µM	35.8 µM	> 100 µM	11.3 µM	> 100 µM	4.05 µM	24.3 µM	9.24	> 100	4.9 µM	90.3 µM
CCOC(=O)Cc1csc(NC(=O)COC(=O)c2ccc(OC)cc2)n1	11.1 µM	31.5 µM	> 91.9 µM	> 100 µM	0.407 µM	2.63 µM	> 100 µM	> 100 µM	19.6	38.5 µM	> 51.3 µM	> 83.8 µM	47.5 µM	> 73.2 µM	12.5 µM	33.5 µM	> 100	> 100	43.3 µM	> 100 µM
CC(C)(C)C(=O)OCc1nc2cc3c(cc2c(=O)[nH]1)CCC3=O	> 100 µM	> 100 µM	> 100 µM	> 100 µM	> 100 µM	> 100 µM	> 100 µM	> 100 µM	> 100	> 100 µM	> 100 µM	> 100 µM	> 100 µM	> 100 µM	> 100 µM	> 100 µM	> 100	> 100	> 100 µM	> 100 µM
C#CCN(Cc1nc2cc(C(F)(F)F)ccc2nc1-c1ccccc1)c1ccc(F)c(F)c1	24 µM	> 100 µM	38 µM	> 100 µM	39 µM	> 100 µM	37.8 µM	> 100 µM	27.5	> 100 µM	> 100 µM	> 100 µM	31.6 µM	> 100 µM	22.1 µM	82.7 µM	92.5	> 100	66.5 µM	> 100 µM
CCCn1c(N)c(C(=O)CNc2ccc(I)cc2)c(=O)[nH]c1=O	0.543 µM	> 100 µM	0.677 µM	> 100 µM	10.5 µM	> 100 µM	6.01 µM	> 100 µM	16	> 100 µM	> 100 µM	> 100 µM	4.72 µM	> 100 µM	0.51 µM	> 100 µM	2.02	> 59.5	0.761 µM	> 48.9 µM
Cc1sc2ncn(Cc3ccc(Cl)c(Cl)c3)c(=O)c2c1C	27.7 µM	> 100 µM	17.4 µM	44.8 µM	> 100 µM	> 100 µM	8.72 µM	> 100 µM	13.1	73.9 µM	21.6 µM	79.7 µM	50.8 µM	> 100 µM	12.2 µM	> 100 µM	38	> 100	27.6 µM	> 100 µM
COc1ccc(-c2c(N)n[nH]c2-c2cc(OC)c(OC)c(OC)c2)cc1	0.238 µM	> 100 µM	0.173 µM	> 38.8 µM	0.0474 µM	0.516 µM	0.0262 µM	0.0907 µM	0.223	24 µM	0.572 µM	> 100 µM	0.424 µM	> 100 µM	0.331 µM	22.5 µM	0.403	> 100	0.276 µM	> 100 µM
CCOC(=O)c1ccccc1-c1c2ccc(=[N+](C)C)cc-2oc2cc(N(C)C)ccc12	0.42 µM	> 45.9 µM	0.257 µM	13.1 µM	0.229 µM	1.08 µM	0.255 µM	5.71 µM	0.306	16.4 µM	0.537 µM	> 39.6 µM	0.195 µM	> 22.8 µM	0.082 µM	4.96 µM	0.103	16.7	0.128 µM	> 35.7 µM
CN(C)CCNc1nc2ccccc2c2c(=O)c3ccccc3sc12	1.92 µM	4.31 µM	1.41 µM	2.79 µM	1.82 µM	4.21 µM	1.83 µM	3.42 µM	1.7	3.41 µM	2.25 µM	5.14 µM	2.36 µM	6.92 µM	2.42 µM	6.35 µM	2.83	11.3	2.25 µM	6.01 µM
O=C(O)C(=O)CBr	14.4 µM and 7.12 µM	> 52.2 µM and 38.6 µM	> 38.9 µM and 18.5 µM	> 54.2 µM and 33.3 µM	12.1 µM and 18.9 µM	46.1 µM and 45.1 µM	> 70.4 µM and 18 µM	> 100 µM and 32.7 µM	2.22	> 31.9 µM and 4.66 µM	> 44.2 µM and 18.4 µM	> 64.8 µM and 37.5 µM	> 43.4 µM and 19.5 µM	> 59.7 µM and 36.7 µM	> 48.9 µM and 26.8 µM	> 73.5 µM and 55.6 µM	> 100	> 100	> 100 µM and 21.6 µM	> 100 µM and 42.9 µM
Cc1cc(O)cc2c1c(=O)c1ccccc1n2C		> 100 µM		> 100 µM		> 100 µM		> 100 µM		> 100 µM		> 100 µM		> 100 µM		> 100 µM		> 100		> 100 µM
CN1CCN(CCOc2ccc(-c3cnc4c(-c5ccc(F)cc5)cnn4c3)cc2)CC1	1.55 µM	3.82 µM	1.55 µM	3.05 µM	2.09 µM	4.47 µM	1.73 µM	3.18 µM	1.87	3.94 µM	1.6 µM	3.03 µM	2.14 µM	5.08 µM	1.67 µM	4.67 µM	1.66	3.39	1.39 µM	2.94 µM
Nc1c(C(=O)Nc2cccc(Br)c2)sc2nc3c(cc12)C(O)CCC3 (stereo not given)	0.357 µM	> 74.9 µM	0.483 µM	> 51.6 µM	0.24 µM	0.757 µM	0.115 µM	0.35 µM	0.412	> 67.6 µM	3.37 µM	60 µM	0.77 µM	37.6 µM	0.404 µM	23.5 µM	2.52	53.9	0.487 µM	20.4 µM
COc1cc2c(cc1OC)-c1ncc3cc4c(cc3c1C2)OCO4	6.36 µM	21.4 µM	11.1 µM	23 µM	10.3 µM	22 µM	63.4 µM	> 100 µM	13.2	48.4 µM	39.6 µM	97 µM	47.3 µM	> 100 µM	5.57 µM	> 100 µM	60	> 100	41.4 µM	> 100 µM
O=C(Nc1cc(-c2cccnc2)nc(NCCCN2CCOCC2)n1)c1cc(Br)cc(C(F)(F)F)c1	3.54 µM	12.9 µM	2.09 µM	4.81 µM	2.15 µM	5.86 µM	1.66 µM	3.15 µM	1.95	5.31 µM	6.33 µM	23.5 µM	2.98 µM	8.59 µM	3.15 µM	9.69 µM	2.5	5.75	2.05 µM	4.3 µM
c1ccc2nc(OCCN3CC3)ccc2c1	4.4 µM	60.5 µM	2.39 µM	15.5 µM	6.59 µM	34.9 µM	3.31 µM	17.9 µM	1.71	4.04 µM	17.1 µM	31.5 µM	14 µM	31.4 µM	3.94 µM	26.7 µM	15.7	43.6	5.2 µM	18.9 µM
